Test results reported in patent publication US20170304388A1, “NEW INDICATION OF CARDIOVASCULAR DRUGS FOR PREPARATION OF CANCER INHIBITION PHARMACEUTICAL COMPOSITION” (LAUNX BIOMEDICAL CO., LTD., priority 2014, published 2017).
Where a name gives a salt, the structure may show the parent alone.

Assays:
Type in all cases: cell-based
[1] = system: A375 (Amelanotic Melanoma); test: Cell viability analysis (WST-1), A375; conditions: Homo sapiens, A-375, 72 h, Table 3, drug 10 μM, WST-1, OD450 nm, lower viability = better inhibition, read-out: survival rate (viability) of cancer cells, A375
[2] = system: HCT116 (Colorectal Carcinoma); test: Cell viability analysis (WST-1), HCT116; conditions: Homo sapiens, HCT-116, 72 h, Table 3, drug 10 μM, WST-1, OD450 nm, read-out: survival rate (viability) of cancer cells, HCT116 (WT)
[3] = system: HepG2 (Hepatocellular Carcinoma); test: Cell viability analysis (WST-1), HepG2; conditions: Homo sapiens, HepG2, 72 h, Table 3, drug 10 μM, WST-1, OD450 nm, read-out: survival rate (viability) of cancer cells, HepG2
[4] = system: HeLa (Cervix Adenocarcinoma); test: Cell viability analysis (WST-1), HeLa; conditions: Homo sapiens, HeLa, 72 h, Table 3, drug 10 μM, WST-1, OD450 nm, read-out: survival rate (viability) of cancer cells, HeLa
[5] = system: AGS (Gastric Adenocarcinoma); test: Cell viability analysis (WST-1), AGS; conditions: 72 h, Table 3, drug 10 μM, WST-1, OD450 nm, read-out: survival rate (viability) of cancer cells, AGS
[6] = system: H1650 (Lung Adenocarcinoma); test: Cell viability analysis (WST-1), H1650; conditions: Homo sapiens, NCI-H1650, 72 h, Table 3, drug 10 μM, WST-1, OD450 nm, read-out: survival rate (viability) of cancer cells, H1650
[7] = system: MKN-45 (Gastric Adenocarcinoma); test: Cell viability analysis (WST-1), MKN-45; conditions: Homo sapiens, MKN-45, 72 h, Table 3, drug 10 μM, WST-1, OD450 nm, read-out: survival rate (viability) of cancer cells, MKN-45
[8] = system: TSGH-8301 (Urinary Bladder Carcinoma); test: Cell viability analysis (WST-1), TSGH-8301; conditions: 72 h, Table 3, drug 10 μM, WST-1, OD450 nm, read-out: survival rate (viability) of cancer cells, TSGH
[9] = system: A549 (Lung Adenocarcinoma); test: Cell viability analysis (WST-1), A549; conditions: Homo sapiens, A549, 72 h, Table 3, drug 10 μM, WST-1, OD450 nm, read-out: survival rate (viability) of cancer cells, A549
[10] = system: MCF7 (Mammary Gland, Adenocarcinoma); test: Cell viability analysis (WST-1), MCF7; conditions: Homo sapiens, MCF7, 72 h, Table 3, drug 10 μM, WST-1, OD450 nm, read-out: survival rate (viability) of cancer cells, MCF7
[11] = system: PC3 (Prostate Adenocarcinoma); test: Cell viability analysis (WST-1), PC3; conditions: 72 h, Table 3, drug 10 μM, WST-1, OD450 nm, read-out: survival rate (viability) of cancer cells, PC3
[12] = system: LoVo (Colorectal Adenocarcinoma); test: Cell viability analysis (WST-1), LoVo; conditions: Homo sapiens, LoVo, 72 h, Table 3, drug 10 μM, WST-1, OD450 nm, read-out: survival rate (viability) of cancer cells, LoVo
[13] = system: HL-60 (Acute Promyelocytic Leukemia); test: Cell viability analysis (WST-1), HL-60; conditions: Homo sapiens, HL-60; Table 3; drug 10 μM, 72 hours, WST-1, OD450 nm; read-out: survival rate (viability) of cancer cells, HL-60
cancer cell lines = test: Growth inhibitory effects on the panel of cancer cell lines; conditions: drug 10 μM, 72 hours; for Numbers of inhibitory effect on cancer cell line: count of cancer cell lines inhibited; for inhibition effect on different cancer cell lines (in words): WST-1

Row | Structure (SMILES) | viability at 10 µM [1] | viability at 10 µM [2] | viability at 10 µM [3] | viability at 10 µM [4] | viability at 10 µM [5] | viability at 10 µM [6] | viability at 10 µM [7] | viability at 10 µM [8] | viability at 10 µM [9] | viability at 10 µM [10] | viability at 10 µM [11] | viability at 10 µM [12] | viability at 10 µM [13] | Numbers of inhibitory effect on cancer cell line (cancer cell lines) | inhibition effect on different cancer cell lines (in words) (cancer cell lines)
1 | Cc1c(OCC(F)(F)F)ccnc1C[S@@+]([O-])c1nc2ccccc2[nH]1 [Dexlansoprazole] | 75.1% | 82.8% | 120% | 105% | 89.8% | 69.6% | 85.8% | 84.9% | 74.5% | 72.1% | 104% | 102% | 72.2% | 0 | significant inhibition effect
2 | Cc1cnc(C(=O)O)c[n+]1[O-] [Acipimox] | 124% | 79.4% | 99.8% | 87.6% | 87.5% | 89.6% | 80.2% | 99.8% | 108% | 75.8% | 94.5% | 77.4% | 102% | 0 | significant inhibition effect
3 | C#CCN[C@@H]1CCc2ccccc21 [Rasagiline mesylate] | 76.9% | 142% | 92% | 88.1% | 75.8% | 71.8% | 87.7% | 74.2% | 91.3% | 88.3% | 103% | 94% | 105% | 0 | significant inhibition effect
4 | CCCSc1nc(N[C@@H]2C[C@H]2c2ccc(F)c(F)c2)c2nnn([C@@H]3C[C@H](OCCO)[C@@H](O)[C@H]3O)c2n1 [Ticagrelor] | 60.1% | 73.6% | 94.5% | 126% | 100% | 76% | 114% | 86% | 85% | 83.1% | 84.1% | 79.6% | 93.7% | 0 | significant inhibition effect
5 | CCOC(=O)[C@H](CCc1ccccc1)N[C@@H](C)C(=O)N1[C@H](C(=O)O)C[C@@H]2CCC[C@@H]21 [Ramipril (Altace), Ramipril] | 120% | 108% | 106% | 84.3% | 99.8% | 135% | 84% | 114% | 99.6% | 82.4% | 104% | 81.9% | 107% | 0 | significant inhibition effect
6 | Cc1cccc(Cc2c[nH]cn2)c1C [Detomidine HCl] | 84.8% | 133% | 102% | 88.8% | 68.5% | 90.6% | 91% | 74.2% | 81.1% | 106% | 89.2% | 91% | 105% | 0 | significant inhibition effect
7 | CC(=O)NS(=O)(=O)c1ccc(N)cc1 [sulfacetamide sodium] | 64.9% | 76.7% | 98.7% | 75.9% | 81.4% | 79.8% | 118% | 120% | 70% | 110% | 70.8% | 81.8% | 112% | 0 | significant inhibition effect
8 | CC(=O)O[C@H]1C[C@@H]2CC[C@@H]3[C@H](CC[C@@]4(C)[C@H]3C[C@H]([N+]3(C)CCCCC3)[C@@H]4OC(C)=O)[C@@]2(C)C[C@@H]1[N+]1(C)CCCCC1 [Pancuronium (Pavulon), Pancuronium] | 75.4% | 102% | 92.7% | 83.3% | 120% | 91.7% | 95.3% | 68.3% | 100% | 110% | 108% | 79.8% | 109% | 0 | significant inhibition effect
9 | CC(=O)Oc1ccc(C(c2ccc(OC(C)=O)cc2)c2ccccn2)cc1 [Bisacodyl] | 88% | 122% | 100% | 89.2% | 107% | 93.6% | 132% | 104% | 66.7% | 65% | 83.7% | 85.5% | 96% | 0 | significant inhibition effect
10 | CCOC(=O)[C@H](CCc1ccccc1)N[C@H]1CCc2ccccc2N(CC(=O)O)C1=O [Benazepril hydrochloride] | 104% | 60% | 93% | 75.9% | 76.7% | 61.6% | 103% | 77.5% | 81.8% | 126% | 80.7% | 96% | 93.6% | 0 | significant inhibition effect
